Data reported in BindingDB's records for doi:10.7270/Q2RN3686 (Emory University, 2009).

Target: Eukaryotic translation initiation factor 4 gamma 1 (Homo sapiens, UniProt Q04637)
Experiment: blockers of eIF4G binding by eIF4E – biochemical, TR-FRET, dose response (AID 855)

Eukaryotic translation initiation factor 4 gamma 1, sequence (Q04637 whole entry): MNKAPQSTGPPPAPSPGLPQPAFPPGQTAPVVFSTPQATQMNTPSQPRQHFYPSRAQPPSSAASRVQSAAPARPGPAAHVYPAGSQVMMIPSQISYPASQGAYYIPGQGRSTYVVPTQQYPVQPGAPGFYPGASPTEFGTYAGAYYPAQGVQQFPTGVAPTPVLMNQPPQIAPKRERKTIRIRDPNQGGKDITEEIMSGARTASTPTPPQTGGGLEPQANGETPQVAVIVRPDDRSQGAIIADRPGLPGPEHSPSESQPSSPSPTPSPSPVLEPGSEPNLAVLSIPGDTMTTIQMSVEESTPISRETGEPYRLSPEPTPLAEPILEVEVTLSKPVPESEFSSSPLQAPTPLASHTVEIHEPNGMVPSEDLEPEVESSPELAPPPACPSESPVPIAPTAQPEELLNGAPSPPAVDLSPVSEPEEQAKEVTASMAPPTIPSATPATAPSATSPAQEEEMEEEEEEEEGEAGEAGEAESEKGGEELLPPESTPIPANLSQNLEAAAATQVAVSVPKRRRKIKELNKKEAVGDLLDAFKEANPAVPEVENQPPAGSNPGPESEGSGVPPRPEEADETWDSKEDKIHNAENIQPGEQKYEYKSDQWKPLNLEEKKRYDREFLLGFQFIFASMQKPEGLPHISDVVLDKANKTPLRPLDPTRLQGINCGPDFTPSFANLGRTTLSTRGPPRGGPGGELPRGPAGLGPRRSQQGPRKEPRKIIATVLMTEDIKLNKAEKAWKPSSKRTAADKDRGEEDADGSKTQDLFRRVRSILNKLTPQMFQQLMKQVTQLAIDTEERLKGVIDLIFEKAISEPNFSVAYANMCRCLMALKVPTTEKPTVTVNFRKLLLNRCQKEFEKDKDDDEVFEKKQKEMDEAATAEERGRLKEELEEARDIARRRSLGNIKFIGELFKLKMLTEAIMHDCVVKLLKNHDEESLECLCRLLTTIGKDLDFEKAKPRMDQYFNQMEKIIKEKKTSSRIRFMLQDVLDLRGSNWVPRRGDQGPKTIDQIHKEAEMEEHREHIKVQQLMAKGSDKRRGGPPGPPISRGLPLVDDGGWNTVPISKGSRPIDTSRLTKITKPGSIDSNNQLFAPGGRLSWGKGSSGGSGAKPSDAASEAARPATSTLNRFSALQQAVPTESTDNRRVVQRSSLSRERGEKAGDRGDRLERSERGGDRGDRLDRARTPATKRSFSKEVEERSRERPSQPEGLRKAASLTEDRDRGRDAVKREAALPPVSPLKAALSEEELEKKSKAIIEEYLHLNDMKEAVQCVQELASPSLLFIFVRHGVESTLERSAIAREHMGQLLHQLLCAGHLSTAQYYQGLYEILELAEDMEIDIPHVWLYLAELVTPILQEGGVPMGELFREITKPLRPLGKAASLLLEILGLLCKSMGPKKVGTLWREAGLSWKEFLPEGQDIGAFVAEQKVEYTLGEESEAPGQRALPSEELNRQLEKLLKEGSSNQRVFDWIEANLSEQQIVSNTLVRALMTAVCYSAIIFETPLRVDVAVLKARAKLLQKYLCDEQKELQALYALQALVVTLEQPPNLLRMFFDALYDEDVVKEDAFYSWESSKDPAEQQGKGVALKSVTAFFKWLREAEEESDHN

Structure (SMILES)	IC50 [µM]
CC(C)(C)c1[nH]nc2c1C(c1ccc(OC(=O)c3ccco3)cc1)C(C#N)C(=N)O2 (configuration not stated) [2-furancarboxylic acid [4-(6-amino-3-tert-butyl-5-cyano-2,4-dihydropyrano[2,3-c]pyrazol-4-yl)phenyl] ester]	> 64
Cc1ccccc1C(=O)Nc1cccc(C(=O)N/N=C/C2C=C(Cl)C=C([N+](=O)[O-])C2=O)c1 (configuration not stated) [N-(3-{[(2E)-2-(5-chloro-2-hydroxy-3-nitrobenzylidene)hydrazino]carbonyl}phenyl)-2-methylbenzamide]	50
O=C1C=CC(CN=Nc2nccs2)C=C1[N+](=O)[O-] (configuration not stated) [(4Z)-2-nitro-4-[(2-thiazolylhydrazo)methylidene]-1-cyclohexa-2,5-dienone]	10.8
NC(=NNC=c1ccc(=C2C=CC(=O)C(C(=O)O)=C2)o1)N[N+](=O)[O-] [5-(5-{2-[amino(nitroimino)methyl]carbonohydrazonoyl}-2-furyl)-2-hydroxybenzoic acid]	63.6
O=C1CCCC(=O)C1C(C#Cc1ccccc1)C1C(=O)CCCC1=O [3-hydroxy-2-[1-(2-hydroxy-6-keto-cyclohexen-1-yl)-3-phenyl-prop-2-ynyl]cyclohex-2-en-1-one]	> 64
COc1cc(C2C(C(=O)c3ccccc3)C(=O)C(=O)N2c2ccccn2)ccc1O (configuration not stated) [(4Z)-5-(3-methoxy-4-oxidanyl-phenyl)-4-[oxidanyl(phenyl)methylidene]-1-pyridin-2-yl-pyrrolidine-2,3-dione]	50
COc1ccc2nc(N3C(=O)C(=C4C(=O)Nc5ccccc54)NC3=S)sc2c1 [(3Z)-3-[1-(6-methoxy-1,3-benzothiazol-2-yl)-5-oxidanylidene-2-sulfanylidene-imidazolidin-4-ylidene]-1H-indol-2-one]	> 64
C[N+](C)(C)c1ccc(CN=Nc2nc(Cl)c(C#N)c(Cl)c2Cl)cc1 [trimethyl-[4-[[(3,4,6-trichloro-5-cyanopyridin-2-yl)hydrazinylidene]methyl]phenyl]azanium;iodide]	> 64
COc1ccc(-c2cnnc(N=NCc3ccc(-c4ccc([N+](=O)[O-])cc4)o3)n2)cc1	50
Oc1cc(N2CCN(Cc3ccc4c(c3)OCO4)CC2)c(O)n1-c1cccc(Cl)c1 [1-(3-chlorophenyl)-3-(4-piperonylpiperazino)pyrrolidine-2,5-quinone]	> 64
C=c1cc2[nH]c(=O)c(=Cc3cc(C)n(-c4ccccc4)c3C)c(=N)n2o1	> 64
O=C1CCCC2=Nc3[nH]c(=S)[nH]c(=O)c3C(c3ccc(Br)cc3)C12 (configuration not stated) [5-(4-bromophenyl)-2-thioxo-2,3,5,8,9,10-hexahydropyrimido[4,5-b]quinoline-4,6(1H,7H)-dione]	> 64
O=C1Nc2ccc([N+](=O)[O-])cc2/C1=N/NC(=O)c1cc(-c2ccccc2Cl)nc2ccccc12 [2-(2-chlorophenyl)-N'-(2-keto-5-nitro-indol-3-yl)cinchoninohydrazide]	> 64
CC(=O)C1=C(C)N=C(SCc2ccc(C#N)cc2)C(C#N)C1c1ccco1 (configuration not stated) [5-acetyl-2-[(4-cyanophenyl)methylsulfanyl]-4-(furan-2-yl)-6-methyl-1,4-dihydropyridine-3-carbonitrile]	> 64
COc1ccc(Cn2c(Nc3cc(Cl)ccc3OC)c3[nH]cccc-3c2=O)cc1 [7-[(5-chloranyl-2-methoxy-phenyl)amino]-6-[(4-methoxyphenyl)methyl]-7H-pyrrolo[3,4-b]pyridin-5-one]	14.4
CN(C)[C@@H]1C(=O)C(C(N)=O)C(=O)[C@@]2(O)C(=O)C3C(=O)c4c(O)cccc4[C@@](C)(O)[C@H]3[C@H](O)[C@@H]12 (stereo partly drawn) [(2E,4S,4aR,5S,5aR,6S,12aS)-2-[azanyl(oxidanyl)methylidene]-4-(dimethylamino)-6-methyl-5,6,10,11,12a-pentakis(oxidanyl)-4,4a,5,5a-tetrahydrotetracene-1,3,12-trione]	50
O=[N+]([O-])c1cc(Br)c(O)c(CN=Nc2nnnn2-c2cccc3ccccc23)c1 [(6E)-2-bromo-6-[[2-(1-naphthalen-1-yltetrazol-5-yl)hydrazinyl]methylidene]-4-nitrocyclohexa-2,4-dien-1-one]	> 64
Cc1ccc(/C=C/C(=O)C2=C(O)N(C)C3(C)CC2c2ccccc2O3)cc1 (configuration not stated) [MLS000519940]	> 64
Cc1cc(CN=Nc2ccc([N+](=O)[O-])cn2)c(C)n1-c1ccc(C(=O)O)cc1 [4-{2,5-dimethyl-3-[2-(5-nitro-2-pyridinyl)carbonohydrazonoyl]-1H-pyrrol-1-yl}benzoic acid]	50
O=NCC(=O)Nc1ccc(F)cc1 [MLS000036190]	> 64
CSc1ccc(CN=Nc2cccc(C(=O)O)c2)cc1 [3-[(N'E)-N'-[4-(methylthio)benzylidene]hydrazino]benzoic acid]	50
Cc1ccc(-n2c(C)cc(CN=Nc3ccc([N+](=O)[O-])cn3)c2C)cc1 [MLS000552475]	> 64
CC(=O)C1=C(c2ccccc2)OC(=N)C(C#N)C1c1ccc(O)cc1 (configuration not stated) [2-azanyl-5-ethanoyl-4-(4-hydroxyphenyl)-6-phenyl-4H-pyran-3-carbonitrile]	> 64
Cc1ccc(Nc2c3[nH]cccc-3c(=O)n2-c2ccccc2C)cc1C [SMR000028201]	9.59
COc1ccc(Cc2c(O)n(-c3ccccc3)c(=O)[nH]c2=O)c(OC)c1	> 64
O=C1N=C(Nc2ccc(O)cc2)SC1=C1C(=O)Nc2ccccc21 [(5Z)-2-[(4-hydroxyphenyl)amino]-5-(2-oxidanylidene-1H-indol-3-ylidene)-1,3-thiazol-4-one]	50
CN(C)[C@@H]1C(=O)C(C(=O)NCN2CCCC2)C(=O)[C@@]2(O)C(=O)C3C(=O)c4c(O)cccc4[C@@](C)(O)C3CC12 (stereo partly drawn) [(2Z,4S,6S,12aS)-4-(dimethylamino)-6,10,11,12a-tetrahydroxy-2-[hydroxy-(1-pyrrolidinylmethylamino)methylidene]-6-methyl-4,4a,5,5a-tetrahydrotetracene-1,3,12-trione]	12.3
